The target in this assay is T1, ENaC (Epithelial Sodium Channel) (Mus musculus, UniProt Q61180+Q9WU38+Q9WU39).
T1 construct: Mouse kidney M-1 cells were cultivated in DMEM; endogenous in cells; host or cells: Mouse kidney M-1 cells (dexamethasone-treated, on transwell filters)
T1 sequence (Q61180 1-699): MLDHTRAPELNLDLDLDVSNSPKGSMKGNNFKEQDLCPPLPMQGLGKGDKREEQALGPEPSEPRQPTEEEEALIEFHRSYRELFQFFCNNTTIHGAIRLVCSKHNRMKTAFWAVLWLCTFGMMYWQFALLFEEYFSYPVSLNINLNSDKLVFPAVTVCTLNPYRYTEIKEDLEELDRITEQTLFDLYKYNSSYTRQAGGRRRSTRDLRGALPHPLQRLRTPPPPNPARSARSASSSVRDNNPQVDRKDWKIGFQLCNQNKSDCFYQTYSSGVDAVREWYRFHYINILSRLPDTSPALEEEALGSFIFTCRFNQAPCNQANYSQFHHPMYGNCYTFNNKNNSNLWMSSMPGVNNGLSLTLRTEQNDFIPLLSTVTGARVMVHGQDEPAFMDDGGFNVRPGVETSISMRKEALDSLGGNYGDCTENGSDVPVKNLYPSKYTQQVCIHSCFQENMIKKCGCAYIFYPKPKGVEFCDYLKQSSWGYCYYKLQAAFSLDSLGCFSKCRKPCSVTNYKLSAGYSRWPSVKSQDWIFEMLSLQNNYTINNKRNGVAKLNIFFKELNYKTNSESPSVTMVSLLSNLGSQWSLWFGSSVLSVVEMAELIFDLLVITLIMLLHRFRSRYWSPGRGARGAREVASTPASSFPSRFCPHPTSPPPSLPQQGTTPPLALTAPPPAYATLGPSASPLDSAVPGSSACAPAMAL
T1 sequence (Q9WU38 1-638): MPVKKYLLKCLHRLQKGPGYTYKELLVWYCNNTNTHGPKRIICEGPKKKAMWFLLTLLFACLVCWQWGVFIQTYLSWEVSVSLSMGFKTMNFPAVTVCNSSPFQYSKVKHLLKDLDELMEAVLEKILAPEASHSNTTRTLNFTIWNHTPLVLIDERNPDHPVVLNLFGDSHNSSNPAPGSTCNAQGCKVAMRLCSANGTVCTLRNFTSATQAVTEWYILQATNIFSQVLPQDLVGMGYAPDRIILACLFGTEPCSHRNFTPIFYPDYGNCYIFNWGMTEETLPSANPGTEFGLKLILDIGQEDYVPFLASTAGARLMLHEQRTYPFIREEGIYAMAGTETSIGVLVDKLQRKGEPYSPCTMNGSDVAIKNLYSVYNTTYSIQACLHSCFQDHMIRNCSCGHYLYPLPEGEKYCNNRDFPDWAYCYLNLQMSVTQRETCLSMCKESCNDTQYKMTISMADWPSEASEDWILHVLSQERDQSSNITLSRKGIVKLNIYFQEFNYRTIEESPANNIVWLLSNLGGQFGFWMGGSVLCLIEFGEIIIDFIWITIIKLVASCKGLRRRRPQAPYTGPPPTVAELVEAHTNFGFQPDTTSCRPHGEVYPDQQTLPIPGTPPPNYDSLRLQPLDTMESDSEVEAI
T1 sequence (Q9WU39 1-655): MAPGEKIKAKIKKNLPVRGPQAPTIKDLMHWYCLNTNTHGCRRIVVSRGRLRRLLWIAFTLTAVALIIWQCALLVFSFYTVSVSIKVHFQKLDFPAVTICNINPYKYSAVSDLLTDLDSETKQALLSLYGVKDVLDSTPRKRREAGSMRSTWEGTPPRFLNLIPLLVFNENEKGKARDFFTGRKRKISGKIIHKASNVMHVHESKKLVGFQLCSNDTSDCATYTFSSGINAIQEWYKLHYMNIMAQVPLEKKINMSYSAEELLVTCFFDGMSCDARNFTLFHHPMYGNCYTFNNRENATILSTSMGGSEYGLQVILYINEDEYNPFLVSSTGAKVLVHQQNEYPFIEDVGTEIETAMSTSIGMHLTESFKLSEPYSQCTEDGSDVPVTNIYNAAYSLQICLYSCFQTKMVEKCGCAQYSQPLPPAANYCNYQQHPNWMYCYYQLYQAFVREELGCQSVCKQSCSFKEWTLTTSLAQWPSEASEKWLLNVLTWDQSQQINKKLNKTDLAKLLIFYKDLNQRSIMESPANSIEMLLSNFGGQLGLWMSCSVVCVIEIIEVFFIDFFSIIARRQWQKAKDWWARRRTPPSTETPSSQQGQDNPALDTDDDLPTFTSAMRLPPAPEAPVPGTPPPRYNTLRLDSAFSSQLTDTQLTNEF
The assay can be described thus: Ussing chamber: inhibition of amiloride sensitive short circuit current (I_sc) in M-1 cells. Format: cell-based. Particulars: mouse kidney M-1 cells. The protocol:
Mouse kidney M-1 cells were cultivated in DMEM containing 5% FCS and 5 μM dexamethasone for 10 to 12 days on polyester transwell filters. Filters were inserted into a teflon-coated well-plate which fit into the in-house ussing chamber system. Prior to measurement the medium of M-1 cells was replaced with Caco-2 transport buffer (Invitrogen, Germany). During measurements, the Ussing chamber temperature was kept at 37° C. Short circuit currents (I_sc) were measured in the voltage-clamp mode using an in-house built amplifier (Boehringer Ingelheim, Biberach) with the software package Lab View for data acquisition and analysis. The transepithelial electrical resistance (TEER) was determined by the application of voltage steps of ±5 mV every 5 sec. Compounds were administered at a final concentration of 3 μM or at increasing concentrations (1-3-10 μM) to the apical solution. At the end of each experiment the amiloride sensitive I_SC was measured by adding 3 μM amiloride to the apical compartment. Results are expressed as inhibition in percent of the amiloride effect or as IC50. With the example compounds given above, the following IC50 values were determined in the Ussing Chamber assay: […]

Structures are written as SMILES.

Usually IC50 stands for the concentration that inhibits the measured activity by half. A low value points to higher potency. Regarding `NC(=NC(=O)c1nc(Cl)c(N)nc1N)NC1CCN(Cc2ccc(OCc3cn(CCOCCOCCO)nn3)cc2)CC1` [Example 3.24], the half-inhibitory concentration (IC50) is 25 nM.
The figure for `COCCOc1ccc(CCc2ccc(CN3CCC(NC(N)=NC(=O)c4nc(Cl)c(N)nc4N)CC3)cc2)nn1` [Example 1.58] is 7 nM.
The value for `NC(=NC(=O)c1nc(Cl)c(N)nc1N)NC1CCN(Cc2ccc(-n3cc(COC[B-](F)(F)F)nn3)cc2)CC1` [Example 3.14] was 6 nM; that for `COC(=O)COc1ccc(CN2CC[C@@H](NC(N)=NC(=O)c3nc(Cl)c(N)nc3N)C2)cc1` [Example 1.46] was 73 nM; that for `CC(=O)N1CCN(C(=O)CCc2cn(CCc3ccc(CN4CCC(NC(N)=NC(=O)c5nc(Cl)c(N)nc5N)CC4)cc3)nn2)CC1` [Example 3.44] was 16 nM.
The figure for `COC(=O)COc1ccc(CN2CCC(NC(N)=NC(=O)c3nc(Cl)c(N)nc3N)CC2)cc1OCC(=O)OC` [Example 1.53] is 7 nM.
The compound `N/C(=N\C(=O)c1nc(Cl)c(N)nc1N)NC1CCN(Cc2ccc(OCC(=O)O)cc2)CC1` [Example 8.8] came in with a half-maximal inhibitory concentration (IC50) of 86 nM.
`NC(=NC(=O)c1nc(Cl)c(N)nc1N)NC1CCN(Cc2ccc(-c3cn(CCOCCOCCOCCNCCOCCOCCO)nn3)cc2)CC1` [Example 3.35]: 4 nM corresponded to half-maximal inhibition (IC50).
In the case of `NC(=NC(=O)c1nc(Cl)c(N)nc1N)N[C@@H]1CCCN(Cc2ccc(C(=O)O)cc2)C1` [Example 1.62], 87 nM corresponded to half-maximal inhibition (IC50).
For the compound `N/C(=N\C(=O)c1nc(Cl)c(N)nc1N)NC1CCN(Cc2ccc(CCn3cc(CCC(=O)N(CCO)CCO)nn3)cc2)CC1` [Example 3.1], the IC50 is 29 nM.
The value for `NC(=NC(=O)c1nc(Cl)c(N)nc1N)NC1CCN(Cc2cccc(-c3cn(CCOCCOCCOCCOCCOCCO)nn3)c2)CC1` [Example 5.9] was 10 nM; that for `NCc1ccc(CN2CCC(N/C(N)=N/C(=O)c3nc(Cl)c(N)nc3N)CC2)cc1` [Example 9.1] was 7 nM.
The value for `NC(=NC(=O)c1nc(Cl)c(N)nc1N)NC1CCN(Cc2ccc(C(=O)NCCS(=O)(=O)O)cc2)CC1` [Example 2.4] was 35 nM.
As to `[N-]=[N+]=NCCc1ccc(CN2CCC(NC(N)=NC(=O)c3nc(Cl)c(N)nc3N)CC2)cc1` [Example 1.3], the IC50 turned out to be 4 nM.
Turning to `CC(C)(C)OC(=O)c1ccc(CN2CCC[C@@H](NC(N)=NC(=O)c3nc(Cl)c(N)nc3N)C2)cc1` [Example 1.61], the IC50 came out at 47 nM.
The figure for `NC(=NC(=O)c1nc(Cl)c(N)nc1N)NC1CCN(Cc2ccc(-c3cn(CCOCCOCCOCCO)nn3)cc2)CC1` [Example 3.26] is 8 nM; for `CC(=O)Oc1ccc(CN2CCC(N/C(N)=N/C(=O)c3nc(Cl)c(N)nc3N)CC2)cc1` [Example 1.41] it is 7 nM.
The figure for `N/C(=N\C(=O)c1nc(Cl)c(N)nc1N)NC1CCN(C(C(=O)O)c2ccccc2)CC1` (stereo not drawn) [Example 8.1] is 136 nM; for `CN(C)CCNC(=O)c1ccc(CN2CCC(NC(N)=NC(=O)c3nc(Cl)c(N)nc3N)CC2)cc1` [Example 1.14] it is 1 nM; for `N/C(=N\C(=O)c1nc(Cl)c(N)nc1N)NC1CCN(Cc2ccccc2)CC1` [Example 1.25] it is 6 nM.
The value for `COCCOc1ccc(C(=O)NCCOCCOCCNC(=O)c2ccc(CN3CCC(NC(N)=NC(=O)c4nc(Cl)c(N)nc4N)CC3)cc2)cc1` [Example 1.49] was 6 nM; that for `COC(=O)COc1ccc(CN2CC(NC(N)=NC(=O)c3nc(Cl)c(N)nc3N)C2)cc1` [Example 1.66] was 261 nM; that for `CN(Cc1cn(-c2ccc(CN3CCC(NC(N)=NC(=O)c4nc(Cl)c(N)nc4N)CC3)cc2)nn1)C(=O)CCNCCOCCOCCOCCO` [Example 5.3] was 2 nM.
`NC(=NC(=O)c1nc(Cl)c(N)nc1N)NC1CCN(Cc2ccc(-n3cc(CCC(=O)O)nn3)cc2)CC1` [Example 3.13] had a concentration for half-maximal inhibition (IC50) of 57 nM.
The value for `NC(=NC(=O)c1nc(Cl)c(N)nc1N)NC1CCN(Cc2cccc(-c3cn(CCOCCOCCOCCNC(=O)c4cc(OCCOCCOCCO)cc(OCCOCCOCCO)c4)nn3)c2)CC1` [Example 5.10] was 31 nM.
In turn, `[N-]=[N+]=NCCOCCOCCOCCNC(=O)c1ccc(CN2CCC(NC(N)=NC(=O)c3nc(Cl)c(N)nc3N)CC2)cc1` [Example 1.7] came in with an IC50 of 4 nM.
The value for `C[N+](C)(C)CCNC(=O)c1cccc(CN2CCC(NC(N)=NC(=O)c3nc(Cl)c(N)nc3N)CC2)c1` [Example 2.3] was 3 nM.
The figure for `NC(=NC(=O)c1nc(Cl)c(N)nc1N)NC1CCN(Cc2ccc(C(=O)NCCOCCOCCOCCn3cc(COC[B-](F)(F)F)nn3)cc2)CC1` [Example 3.9] is 20 nM; for `NC(=NC(=O)c1nc(Cl)c(N)nc1N)NC1CC2CCC(C1)N2Cc1ccccc1` (single isomer, unassigned) [Example 1.27] it is 49 nM.
`NC(=NC(=O)c1nc(Cl)c(N)nc1N)NC1CCN(Cc2ccc(C(=O)NCCOCCOCCOCCn3cc(COCCO)nn3)cc2)CC1` [Example 3.8] had an IC50 of 19 nM.
The value for `NC(=NC(=O)c1nc(Cl)c(N)nc1N)NC1CCN(Cc2ccc(-c3cn(CCOCCOCCOCCOCCOCCO)nn3)cc2)CC1` [Example 3.27] was 1 nM; that for `NC(=NC(=O)c1nc(Cl)c(N)nc1N)NC1CCN(Cc2ccc(CCn3cc(COCC(CO)(CO)CO)nn3)cc2)CC1` [Example 3.7] was 22 nM; that for `COC(=O)c1ccc(CN2CCC(N/C(N)=N/C(=O)c3nc(Cl)c(N)nc3N)CC2)cc1` [Example 1.29] was 2 nM.
The compound `COC(=O)CCc1ccc(CN2CCC(NC(N)=NC(=O)c3nc(Cl)c(N)nc3N)CC2)cc1` [Example 1.45] showed an IC50 of 10 nM.
The value for `COC(=O)COc1ccc(CN2CC[C@H](NC(N)=NC(=O)c3nc(Cl)c(N)nc3N)C2)cc1` [Example 1.42] was 59 nM; that for `NC(=NC(=O)c1nc(Cl)c(N)nc1N)NC1CCN(Cc2ccccc2)C1` (stereo not drawn) [Example 1.26] was 20 nM; that for `NC(=NC(=O)c1nc(Cl)c(N)nc1N)NC1CCN(Cc2ccc(-n3cc(CCC(=O)N(CCOCCOCCO)CCOCCOCCO)nn3)cc2)CC1` [Example 3.16] was 18 nM.
In the case of `C#Cc1cccc(CN2CCC(NC(N)=NC(=O)c3nc(Cl)c(N)nc3N)CC2)c1` [Example 1.32], the IC50 came to 7 nM.
As for `[N-]=[N+]=NCCOCCOCCOCCN(CCOCCOCCO)C(=O)c1ccc(=O)n(Cc2ccc(CN3CCC(NC(N)=NC(=O)c4nc(Cl)c(N)nc4N)CC3)cc2)c1` [Example 1.56], the IC50 amounted to 24 nM.

For the origin of these results see patent US8859559B2, “Substituted pyrazines and their use in the treatment of disease” (Boehringer Ingelheim International GmbH, priority 2011, dated 2014).
